Measurements taken from patent US20050282818A1, “Ubiquitin ligase inhibitors” (Rigel Pharmaceuticals, Inc., priority 2004, published 2005).
Where two headings read alike, the source gives them in different places.

Columns and labels:
A549 cells = assay: Cell proliferation PAD assay, A549; type: cell-based; details: Homo sapiens, 48 hours
Procedure, shortened: (§1)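 Proliferation was scored by DAPI imaging of fixed cells, counting live, apoptotic and dead cells, after 48 h compound exposure at 37 °C, 5% CO2. Compound, dosed in duplicate 24 h post-plating (2,000 cells/well), came from 6.3-fold dilutions of a 10 mM stock diluted 500-fold.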

H1299 cells = assay: Cell proliferation PAD assay, H1299; type: cell-based; details: Homo sapiens, 48 hours
Procedure, shortened: as §1

DLD-1 cells = assay: Cell proliferation PAD assay, DLD-1; type: cell-based; details: Homo sapiens, DLD1 cells, 6pt, 48 hours
From the text: (§2) Table 3 illustrates the inhibitory activity of the compounds of the invention determined by the PAD assay described above in a number of cell types. Apoptosis was not
(§3) Cell lines used are available from American Type Culture Collection (ATCC), for example, cell cultures containing A549 (ATCC# CCL-185), HeLa (ATCC# CCL-2), HCT116 ATTC# CCL-247), and H1299 (ATCC# CRL-5803) cells were maintained in T175 flasks following the ATCC recommended media and handling procedures. […] A 20,000 cells/ml solution was made for plating. Cells were plated in black Packard 96 well plates by placing 100 μl per well (2,000 cells per well). […] The definitions of the cell types used are as follows: A549 is lung carcinoma; HI 299 is non-small cell lung carcinoma; HI 155 is non-small cell lung carcinoma; AsPC-1 is pancreatic adenocarcinoma; Caov-3 is ovarian adenocarcinoma; COLO 205 is colorectal adenocarcinoma; DLD-1 colorectal adenocarcinoma; HCT116 is colorectal carcinoma; DU 145 is prostate carcinoma; ES-2 is ovarian clear cell carcinoma; H460 is large cell lung carcinoma; HELA is cervical adenocarcinoma; MIA PaCa-2 is pancreatice carcinoma; OVCAR-3 is ovarian adenocarcinoma; OVCAR8 is ovarian carcinoma; PC3 is prostate adenocarcinoma; SK-OV-3 is ovarian adenocarcinoma; SU86.86 is pancreatic carcinoma; TOV-21G is avarian clear cell carcinoma; U2OS is bone osteosarcoma; is ASPC-I is pancreatic adenocarcinoma; BXPC-3 is pabcreatic adenocarcinoma; HL60 is promyeloblast promyelocytic leukemia; K562 is bone marrow chronic myelogenous leukemia; L1210 is mouse lymphocytic leukemia; MOLT3 is T lymphoblast acute lymphoblastic leukemia; MOLT4 is T lymphoblast acute lymphoblastic leukemia; SW620 is colorectal adenocarcinoma; THP-1 is monocyte acute monocytic leukemia; U937 is histiocytic lymphoma; and UACC-257 is melanoma.
(§4) Compounds and additional media were added 24 hours after cell plating. A compound master plate was created with concentrations 500 times greater than the final concentration added to the cells. All compound testing was done in duplicate using 6.3 fold dilutions starting with 10 mM. All outside wells (and 4 internal wells) were DMSO controls. Taxol and at least one additional control were run on all plates. Three microliters of the compound master plate were added to deep well blocks containing 750 μl of RPMI media. One hundred microliters were transferred from the compound/media deep well blocks to the plated cells resulting in a 500 fold dilution of the compounds. Cells were grown at 37° C., 5% CO2 for 48 hours.
(§5) Cells to be analyzed by photography were fixed and stained. One hundred microliters of media were removed and 100 μl of 9.3% formamide was added to each well. Plates were left on the benchtop for 45 minutes. A staining solution containing 1.55 μl of 1 mg/ml DAPI added to 18.75 ml PBS was warmed for 15 minutes at 37° C. The cells were aspirated prior to washing with 100 μl of PBS. Seventy microliters of PBS were aspirated and 170 μl of the DAPI solution were added to each well of fixed cells. Plates were left at room temperature for one hour then aspirated and washed twice with 100 μl of PBS. The stained cells were left at 4° C. for a minimum of 16 hours before photographic analysis with Array Scan II (Cellomics). Analysis of the photographic images to determine numbers of live cells (proliferation), apoptotic cells and dead cells, were according to the methods described in U.S. Utility patent application Ser. No. 10/652,440, which incorporated herein in its entirety.

HCT116 cells = assay: Cell proliferation PAD assay, HCT116; type: cell-based; details: Homo sapiens, 48 hours
From the text: as §2, §3, §4, §5

HELA cells = assay: Cell proliferation PAD assay, HeLa; type: cell-based; details: Homo sapiens, 6pt, 48 hours
From the text: as §2, §3, §4, §5

U2OS cells = assay: Cell proliferation PAD assay, U2OS; type: cell-based; details: Homo sapiens, 6pt, 48 hours
From the text: as §2, §3, §4, §5

TRAF6/Uev1A/Ubc13 = molecular target: T1, TRAF6/Uev1A/Ubc13 (Homo sapiens, UniProt Q9Y4K3); assay: TRAF6/Uev1A/Ubc13 plate-based ubiquitin ligase assay; type: biochemical
T1 sequence (Q9Y4K3 1-522): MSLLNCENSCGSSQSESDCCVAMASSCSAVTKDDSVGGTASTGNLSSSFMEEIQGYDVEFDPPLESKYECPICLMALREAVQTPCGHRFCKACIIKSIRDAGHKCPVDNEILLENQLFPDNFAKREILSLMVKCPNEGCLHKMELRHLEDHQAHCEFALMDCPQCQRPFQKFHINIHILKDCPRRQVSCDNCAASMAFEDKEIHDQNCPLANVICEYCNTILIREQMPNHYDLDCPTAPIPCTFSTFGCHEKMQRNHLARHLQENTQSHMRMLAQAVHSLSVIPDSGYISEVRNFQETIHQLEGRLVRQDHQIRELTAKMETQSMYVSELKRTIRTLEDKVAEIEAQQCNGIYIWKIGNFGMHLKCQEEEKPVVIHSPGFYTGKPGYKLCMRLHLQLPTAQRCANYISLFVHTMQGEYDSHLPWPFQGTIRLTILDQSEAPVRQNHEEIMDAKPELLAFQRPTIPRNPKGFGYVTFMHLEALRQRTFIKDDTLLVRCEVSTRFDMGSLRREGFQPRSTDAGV
Procedure, shortened: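 Ligase activity was read as luminescence from anti-Flag/HRP detection of Flag-ubiquitin bound to casein-blocked Ni-plates alongside His-ubiquitin after a 1 h room-temperature reaction. Buffer: 62.5 mM Tris pH 7.5, 6.25 mM MgCl2, 1.0 mM DTT, 2 μM ATP; E1, Uev1a/Ubc13 and TRAF6 added last to start. IC50s derived across compound concentrations.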

COLO 205 cells = assay: Cell proliferation PAD assay, COLO 205; type: cell-based; details: Homo sapiens, Colo205 cells, 9pt, 48 hours
From the text: as §2
(§6) Cell lines used are available from American Type Culture Collection (ATCC), for example, cell cultures containing A549 (ATCC# CCL-185), HeLa (ATCC# CCL-2), HCT116 ATTC# CCL-247), and H1299 (ATCC# CRL-5803) cells were maintained in T175 flasks following the ATCC recommended media and handling procedures. […] A 20,000 cells/ml solution was made for plating. Cells were plated in black Packard 96 well plates by placing 100 μl per well (2,000 cells per well). […]
(§7) Cells to be analyzed by photography were fixed and stained. […]

MIA PaCa-2 cells = assay: Cell proliferation PAD assay, MIA PaCa-2; type: cell-based; details: Homo sapiens, Miapaca2 cells, 9pt, 48 hours
From the text: as §2, §6, §7

[1] = NCI-H1299, 3pt, read-out: H1299 3pt
[2] = NCI-H1299, 6pt, read-out: H1299 6pt
[3] = HCT-116, 6pt, read-out: HCT116 6pt

Compound	IC50 (A549 cells; 3pt, read-out: A549 3pt)	IC50 (A549 cells; 6pt, read-out: A549 6pt)	IC50 (H1299 cells; [1])	IC50 (H1299 cells; [2])	IC50 (DLD-1 cells)	IC50 (HCT116 cells; [3])	IC50 (HELA cells)	IC50 (U2OS cells)	IC50 (TRAF6/Uev1A/Ubc13)	IC50 (COLO 205 cells)	IC50 (HCT116 cells; HCT-116, 9pt, read-out: HCT116 9pt)	IC50 (MIA PaCa-2 cells)
O=S(=O)(Nc1cccc2cccnc12)c1cccc2nonc12 [compound 64, N-quinolin-8-yl-2,1,3-benzoxadiazole-4-sulfonamide]	1 to 20 µM	< 1 µM	1 to 20 µM	< 1 µM	< 1 µM	1 to 20 µM	1 to 20 µM	< 1 µM	–	–	–	–
O=S(=O)(c1ccc(F)c2nonc12)N1CCN(c2ncc(C(F)(F)F)cc2Cl)CC1 [compound 164, 4-({4-[3-chloro-5-(trifluoromethyl)pyridin-2-yl]piperazin-1-yl}sulfonyl)-7-fluoro-2,1,3-benzoxadiazole]	1 to 20 µM	1 to 20 µM	1 to 20 µM	1 to 20 µM	–	–	–	≥ 20 µM	< 1 µM	–	–	–
O=S(=O)(c1ccc(Cl)c2nonc12)N1CCN(c2ncc(C(F)(F)F)cc2Cl)CC1 [compound 169, 4-chloro-7-({4-[3-chloro-5-(trifluoromethyl)pyridin-2-yl]piperazin-1-yl}sulfonyl)-2,1,3-benzoxadiazole]	≥ 20 µM	1 to 20 µM	≥ 20 µM	< 1 µM	–	–	–	< 1 µM	1 to 20 µM	–	–	–
Cc1cccc(N2CCN(S(=O)(=O)c3ccc(Cl)c4nonc34)CC2)n1 [compound 194, 4-chloro-7-{[4-(6-methylpyridin-2-yl)piperazin-1-yl]sulfonyl}-2,1,3-benzoxadiazole]	≥ 20 µM	≥ 20 µM	1 to 20 µM	≥ 20 µM	–	–	–	< 1 µM	≥ 20 µM	–	–	–
CC1CN(S(=O)(=O)c2c(Cl)ccc3nonc23)CC(C)O1 (centres unmarked) [compound 204, 5-chloro-4-[(2,6-dimethylmorpholin-4-yl)sulfonyl]-2,1,3-benzoxadiazole]	1 to 20 µM	≥ 20 µM	< 1 µM	< 1 µM	< 1 µM	1 to 20 µM	1 to 20 µM	< 1 µM	≥ 20 µM	–	–	–
O=S(=O)(Nc1ccc2[nH]ncc2c1)c1ccc(Cl)c2nonc12 [compound 218, 7-chloro-N-1H-indazol-5-yl-2,1,3-benzoxadiazole-4-sulfonamide]	≥ 20 µM	≥ 20 µM	1 to 20 µM	1 to 20 µM	1 to 20 µM	1 to 20 µM	1 to 20 µM	1 to 20 µM	≥ 20 µM	–	–	–
O=S(=O)(Nc1ccc2cn[nH]c2c1)c1c(Cl)ccc2nonc12 [compound 219, 5-chloro-N-1H-indazol-6-yl-2,1,3-benzoxadiazole-4-sulfonamide]	1 to 20 µM	≥ 20 µM	1 to 20 µM	< 1 µM	< 1 µM	< 1 µM	≥ 20 µM	< 1 µM	1 to 20 µM	1 to 20 µM	< 1 µM	< 1 µM
